Test results taken from patent US20250134907A1, “FUSED DIAZEPINES AS AGONISTS OF THE INSULIN-LIKE 3 (INSL3) PEPTIDE RECEPTOR RXFP2 AND METHODS OF USE THEREOF” (The United States of America,as represented by the …, priority 2022, published 2025).
Bridges are numbered along the chain shown (N, C = ends). Roman numbers before positions name the chains, in order. Where no end group is shown, it is not given here.

Columns and labels:
WT RXFP2 = molecular target: T1, WT RXFP2 (Homo sapiens, UniProt Q8WXD0); assay: HTRF cAMP assay in HEK293T cells transiently transfected with WT RXFP2; assay type: cell-based
T1 construct: using full-length human RXFP1 and RXFP2 receptor constructs; FLAG; expressed in transfected cells; host or cells: HEK293T (transient, Lipofectamine2000)
Excerpt: (§1) To further investigate the involvement of the RXFP2 extracellular and transmembrane domains in agonist activation of the receptor, two complementary chimeras were created using the RXFP1 receptor, which is not activated by the agonists of formula (I), to transiently transfect HEK293T cells and measured changes in cAMP induction using the HTRF assay.
(§2) Chimeric receptors were generated by IN-FUSION™ (Takara Bio USA, Inc., San Jose, CA) mutagenesis using full-length human RXFP1 and RXFP2 receptor constructs. Polymerase chain reaction (PCR) was performed using PfuTurbo high-fidelity DNA polymerase (Agilent Technologies, Santa Clara, CA) and overlapping primers with at least 15 bp sequence homology within the fusion site. PCR products were digested with Dpnl restricton enzyme at 37° C. overnight, run on a 0.8% agarose gel and purified using the GENEJET™ Gel extraction kit (Thermo Scientific, Waltham, MA). The purified DNA fragments were then ligated into the BamHI and XhoI pre-digested pcDNA3.1™/Zeo(+) AmpR mammalian expression vector using the In-Fusion HD enzyme premix (Clontech, Mountain View, CA) at 50° C. for 15 minutes, and the resulting product was used to transform Stellar competent cells (Takara Bio USA, Inc., San Jose, CA). The clones were fully sequenced to confirm the correct fusion of both receptor fragments. Chimera RXFP2-1 contained the extracellular domain of RXFP2 and the transmembrane domain of RXFP1. Accordingly, chimera RXFP1-2 contained the extracellular domain of RXFP1 and the transmembrane domain of RXFP2.
(§3) HEK293T cells were seeded in 6-well flat-bottom clear plates at 0.5 million cells/well in 2 mL/well of growth medium (DMEM, 10% FBS, 1× Pen/Strep) and allowed to attach overnight at 37° C. and 5% CO2. The next morning, cells were transfected with 2 μg of plasmid (chimeric receptors, WT RXFP2, or WT RXFP1) and 6 μl of Lipofectamine2000 (Invitrogen, Waltham, MA) in a total volume of 200 μl/well OPTI-MEM™ I (Thermo Fisher, Waltham, MA) reduced serum medium and allowed to incubate an additional 24 hours. The next day, transfected cells were seeded in 96-well flat-bottom opaque plates at 30,000 cells/well in 60 μL/well of serum-free DMEM medium and allowed to attach overnight at 37° C. at 5% CO2. The next morning, cells were treated with 1 μL/well of compound (25 μM-0.25 nM), 2 μM forskolin, or DMSO vehicle. Cells were also treated with 4 μL of positive control INSL3 (100-0.01 nM), Relaxin2 (100-10 nM), or vehicle (serum-free DMEM+IBMX). Plates were incubated for 1 hour at 37° C. and 5% CO2, after which kit cAMP-d2 and anti-cAMP antibody were added as previously described. Cells were incubated for 1 hour at room temperature, and then the signal was read on a CLARIOstar plate reader (BMG Labtech, Germany).

[1] = system: chimera RXFP2-1 (extracellular domain of RXFP2, transmembrane domain of RXFP1); assay: HTRF cAMP assay in HEK293T cells transiently transfected with chimera RXFP2-1; assay type: cell-based, human
Excerpt: as §1, §2, §3

[2] = system: chimera RXFP1-2 (extracellular domain of RXFP1, transmembrane domain of RXFP2); assay: HTRF cAMP assay in HEK293T cells transiently transfected with chimera RXFP1-2; assay type: cell-based, human
Excerpt: as §1, §2, §3

T1 sequence (Q8WXD0 whole entry): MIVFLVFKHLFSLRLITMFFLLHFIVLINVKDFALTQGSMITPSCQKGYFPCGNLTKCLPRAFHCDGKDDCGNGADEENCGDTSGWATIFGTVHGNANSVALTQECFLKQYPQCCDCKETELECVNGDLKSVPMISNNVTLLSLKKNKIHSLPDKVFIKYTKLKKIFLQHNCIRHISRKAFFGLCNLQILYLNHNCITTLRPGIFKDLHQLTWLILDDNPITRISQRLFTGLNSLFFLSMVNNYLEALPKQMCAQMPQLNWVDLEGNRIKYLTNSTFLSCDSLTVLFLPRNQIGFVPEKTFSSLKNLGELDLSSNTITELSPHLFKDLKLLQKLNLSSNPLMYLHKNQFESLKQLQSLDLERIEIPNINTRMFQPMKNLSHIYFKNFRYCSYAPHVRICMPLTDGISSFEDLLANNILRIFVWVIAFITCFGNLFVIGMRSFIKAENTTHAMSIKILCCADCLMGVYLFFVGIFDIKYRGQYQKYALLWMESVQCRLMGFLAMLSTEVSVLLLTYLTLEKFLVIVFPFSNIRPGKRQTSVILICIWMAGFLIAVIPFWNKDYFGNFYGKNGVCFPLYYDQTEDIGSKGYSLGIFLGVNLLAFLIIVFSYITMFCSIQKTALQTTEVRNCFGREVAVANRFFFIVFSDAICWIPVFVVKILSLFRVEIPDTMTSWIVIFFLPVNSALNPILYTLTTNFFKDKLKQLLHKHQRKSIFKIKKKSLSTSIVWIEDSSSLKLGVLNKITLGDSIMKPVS

I: PTPEMREKLCGHHFVRALVRVCGGPRWSTEA / II: AAATNPARYCCLSGCTQQDLLTLCPY (disulfide I:10-II:11, I:22-II:24, II:10-II:15) [INSL3]
Emax (WT RXFP2; HEK-293T, normalized to 2 μM forskolin cAMP response as 100% activity): 78.4 ± 11.2% | EC50 (WT RXFP2; read-out: EC50 (μM or nM)): 0.0005 ± 0.00035 µM | cAMP response of chimera RXFP2-1 [1]: levels comparable to WT RXFP2 | Emax ([1]; RXFP2-1 chimera, normalized to 2 μM forskolin cAMP response as 100% activity): 92.30 ± 21.82% | EC50 ([1]; RXFP2-1 chimera, read-out: EC50 (μM or nM)): 0.00074 ± 0.00061 µM | cAMP response of chimera RXFP1-2 [2]: did not respond
